Source: PubChem BioAssay (NCI)
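Step 1: Grow cells in 96-well plates. Step 2: Expose to compound for 48 hours at 5 concentrations. Step 3: Interpolate endpoints linearly; if unreached, use highest concentration. At the TGI there is no net growth.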

Tests used:
Test in all cases: growth of human tumour cells (NCI), 48 h
DU-145 prostate = tested on: DU-145 prostate
SF-295 CNS = tested on: SF-295 CNS
U251 CNS = tested on: U251 CNS
OVCAR-3 ovarian = tested on: OVCAR-3 ovarian
OVCAR-5 ovarian = tested on: OVCAR-5 ovarian
TK-10 renal = tested on: TK-10 renal
SF-539 CNS = tested on: SF-539 CNS
MDA-MB-435 = tested on: MDA-MB-435
CCRF-CEM leukemia = tested on: CCRF-CEM leukemia
PC-3 prostate = tested on: PC-3 prostate
NCI-H23 lung = tested on: NCI-H23 lung
HCC-2998 colon = tested on: HCC-2998 colon
HOP-62 NSCLC = tested on: HOP-62 NSCLC
SN12C renal = tested on: SN12C renal
NCI/ADR-RES ovarian = tested on: NCI/ADR-RES ovarian
UACC-62 melanoma = tested on: UACC-62 melanoma
COLO 205 colon = tested on: COLO 205 colon
MDA-MB-231 breast = tested on: MDA-MB-231 breast
K-562 leukemia = tested on: K-562 leukemia
RPMI-8226 leukemia = tested on: RPMI-8226 leukemia

## CCCO[C@@H]1[C@@H](OC(C)=O)[C@@H](OC(C)=O)C(C)(C)/C=C/[C@H](C)C(=O)[C@@]2(OC(C)=O)C[C@@](C)(OC(C)=O)[C@H](OC(C)=O)[C@@H]2[C@H]2OC(=O)CC[C@@]12OC(=O)c1ccccc1
DU-145 prostate
  TGI: > 25 µM
SF-295 CNS
  TGI: > 25 µM
U251 CNS
  TGI: > 25 µM
OVCAR-3 ovarian
  TGI: > 25 µM
OVCAR-5 ovarian
  TGI: > 25 µM
TK-10 renal
  TGI: > 25 µM
SF-539 CNS
  TGI: > 25 µM
MDA-MB-435
  TGI: > 25 µM
CCRF-CEM leukemia
  TGI: > 25 µM
PC-3 prostate
  TGI: > 25 µM
NCI-H23 lung
  TGI: > 25 µM
HCC-2998 colon
  TGI: > 25 µM
HOP-62 NSCLC
  TGI: > 25 µM
SN12C renal
  TGI: > 25 µM
NCI/ADR-RES ovarian
  TGI: > 25 µM
UACC-62 melanoma
  TGI: > 25 µM
COLO 205 colon
  TGI: > 25 µM
MDA-MB-231 breast
  TGI: > 25 µM
K-562 leukemia
  TGI: > 25 µM

## COc1ccc(/C=N/n2cnc3c(c2=O)SC(=C(C#N)C#N)N3c2ccccc2)cc1
SF-295 CNS
  TGI: > 100 µM
U251 CNS
  TGI: > 100 µM
OVCAR-3 ovarian
  TGI: > 100 µM
OVCAR-5 ovarian
  TGI: > 100 µM
TK-10 renal
  TGI: > 100 µM
SF-539 CNS
  TGI: > 100 µM
CCRF-CEM leukemia
  TGI: > 100 µM
NCI-H23 lung
  TGI: > 100 µM
HCC-2998 colon
  TGI: > 100 µM
HOP-62 NSCLC
  TGI: > 100 µM
UACC-62 melanoma
  TGI: > 100 µM
COLO 205 colon
  TGI: > 100 µM
RPMI-8226 leukemia
  TGI: > 100 µM
K-562 leukemia
  TGI: > 100 µM

## Nc1nc(SCc2ccccc2Cl)c2[nH]cnc2n1
SF-295 CNS
  TGI: > 100 µM
U251 CNS
  TGI: > 100 µM
OVCAR-3 ovarian
  TGI: > 100 µM
OVCAR-5 ovarian
  TGI: > 100 µM
TK-10 renal
  TGI: 67 µM
SF-539 CNS
  TGI: > 100 µM
CCRF-CEM leukemia
  TGI: > 100 µM
NCI-H23 lung
  TGI: > 100 µM
HCC-2998 colon
  TGI: > 100 µM
HOP-62 NSCLC
  TGI: > 100 µM
SN12C renal
  TGI: > 100 µM
UACC-62 melanoma
  TGI: > 100 µM
COLO 205 colon
  TGI: > 100 µM
RPMI-8226 leukemia
  TGI: > 100 µM
K-562 leukemia
  TGI: > 100 µM

## Cc1nc2ccc(S(=O)(=O)Nc3nccs3)cc2c(=O)n1NS(=O)(=O)c1nccs1
DU-145 prostate
  TGI: > 100 µM
SF-295 CNS
  TGI: > 100 µM
U251 CNS
  TGI: > 100 µM
OVCAR-3 ovarian
  TGI: > 100 µM
OVCAR-5 ovarian
  TGI: > 100 µM
TK-10 renal
  TGI: > 100 µM
SF-539 CNS
  TGI: > 100 µM
MDA-MB-435
  TGI: > 100 µM
CCRF-CEM leukemia
  TGI: > 100 µM
PC-3 prostate
  TGI: > 100 µM
NCI-H23 lung
  TGI: > 100 µM
HCC-2998 colon
  TGI: > 100 µM
HOP-62 NSCLC
  TGI: > 100 µM
SN12C renal
  TGI: > 100 µM
NCI/ADR-RES ovarian
  TGI: > 100 µM
UACC-62 melanoma
  TGI: > 100 µM
COLO 205 colon
  TGI: > 100 µM
MDA-MB-231 breast
  TGI: > 100 µM
RPMI-8226 leukemia
  TGI: > 100 µM
K-562 leukemia
  TGI: > 100 µM

## CCOC(=O)c1sc2nc(SC)nc(Nc3ccc4c(c3)OCCO4)c2c1N
DU-145 prostate
  TGI: 33.5 µM
SF-295 CNS
  TGI: 58.1 µM
U251 CNS
  TGI: 21.2 µM
OVCAR-3 ovarian
  TGI: 26.7 µM
OVCAR-5 ovarian
  TGI: 54.7 µM
TK-10 renal
  TGI: 30.3 µM
SF-539 CNS
  TGI: 18.2 µM
MDA-MB-435
  TGI: 42.7 µM
CCRF-CEM leukemia
  TGI: > 100 µM
PC-3 prostate
  TGI: 29.7 µM
NCI-H23 lung
  TGI: 36.5 µM
HCC-2998 colon
  TGI: > 100 µM
HOP-62 NSCLC
  TGI: 29.5 µM
SN12C renal
  TGI: 29.9 µM
NCI/ADR-RES ovarian
  TGI: 44.7 µM
UACC-62 melanoma
  TGI: 23.5 µM
COLO 205 colon
  TGI: > 100 µM
MDA-MB-231 breast
  TGI: 25.9 µM
RPMI-8226 leukemia
  TGI: 77.1 µM
K-562 leukemia
  TGI: > 100 µM

## CCCCC1C=Cn2c(=O)oc3c(OC(C)C)c(C)c(O)c1c32 (stereo unspecified)
DU-145 prostate
  TGI: 5.5 µM
SF-295 CNS
  TGI: 7.16 µM
U251 CNS
  TGI: 11 µM
OVCAR-3 ovarian
  TGI: 14.8 µM
OVCAR-5 ovarian
  TGI: 15.1 µM
TK-10 renal
  TGI: 18.7 µM
SF-539 CNS
  TGI: 19.2 µM
MDA-MB-435
  TGI: 3.38 µM
CCRF-CEM leukemia
  TGI: 5.1 µM
PC-3 prostate
  TGI: 14.2 µM
NCI-H23 lung
  TGI: 4.71 µM
HCC-2998 colon
  TGI: 13.6 µM
HOP-62 NSCLC
  TGI: 10.5 µM
SN12C renal
  TGI: 3.71 µM
NCI/ADR-RES ovarian
  TGI: 5.88 µM
UACC-62 melanoma
  TGI: 2.97 µM
COLO 205 colon
  TGI: 9.97 µM
MDA-MB-231 breast
  TGI: 4.87 µM
RPMI-8226 leukemia
  TGI: 11.8 µM
K-562 leukemia
  TGI: > 35.3 µM

## CNC(C)C(O)c1ccc2oc3cc(=O)c4ccccc4c-3nc2c1 (stereo unspecified)
DU-145 prostate
  TGI: 18 µM
SF-295 CNS
  TGI: 15.6 µM
U251 CNS
  TGI: 22.4 µM
OVCAR-3 ovarian
  TGI: 28.7 µM
OVCAR-5 ovarian
  TGI: > 100 µM
TK-10 renal
  TGI: > 100 µM
SF-539 CNS
  TGI: 5.99 µM
MDA-MB-435
  TGI: 3.54 µM
CCRF-CEM leukemia
  TGI: 47 µM
PC-3 prostate
  TGI: > 100 µM
NCI-H23 lung
  TGI: > 100 µM
HCC-2998 colon
  TGI: > 100 µM
HOP-62 NSCLC
  TGI: 18.1 µM
SN12C renal
  TGI: 25.1 µM
NCI/ADR-RES ovarian
  TGI: > 100 µM
UACC-62 melanoma
  TGI: 14.3 µM
COLO 205 colon
  TGI: > 100 µM
MDA-MB-231 breast
  TGI: > 100 µM
RPMI-8226 leukemia
  TGI: > 100 µM
K-562 leukemia
  TGI: > 100 µM

## O=C1c2ccccc2OCC12OC21C=CC(Cl)=CC1 (stereo unspecified)
DU-145 prostate
  TGI: 38.6 µM
U251 CNS
  TGI: 44.4 µM
OVCAR-3 ovarian
  TGI: 42.1 µM
OVCAR-5 ovarian
  TGI: 81.3 µM
TK-10 renal
  TGI: > 100 µM
SF-539 CNS
  TGI: > 100 µM
MDA-MB-435
  TGI: 51.5 µM
PC-3 prostate
  TGI: > 100 µM
NCI-H23 lung
  TGI: 37.9 µM
HCC-2998 colon
  TGI: 42.2 µM
HOP-62 NSCLC
  TGI: 92.1 µM
SN12C renal
  TGI: 35.3 µM
NCI/ADR-RES ovarian
  TGI: 50.1 µM
UACC-62 melanoma
  TGI: > 100 µM
COLO 205 colon
  TGI: 33.4 µM
MDA-MB-231 breast
  TGI: 50.9 µM
RPMI-8226 leukemia
  TGI: 47.4 µM
K-562 leukemia
  TGI: > 100 µM
